Results from patent US12336980B2, “Dosing regimen for a selective S1P1 receptor agonist” (Vanda Pharmaceuticals Inc., priority 2014, dated 2025).

Tests used:
healthy subjects [1] = assay: 12-lead ECG, heart rate, PR interval and ECG abnormalities, cross-over up-titration study; assay type: in vivo, human; details: for mean maximum change from baseline in HR (12-lead ECG): Day 2, 2 h post-dose; for mean maximum change from baseline in HR (12-lead ECG) / decrease in HR vs. baseline (12-lead ECG): mean±SD; for decrease in HR vs. baseline (12-lead ECG): Day 3, 2 h after administration; for time for HR to return to baseline values post-dose (12-lead ECG): Day 2; for occurrence of HR <45 bpm, events / occurrence of HR <45 bpm, subjects: any time during the regimen, 12-lead ECG; for occurrence of PR interval >210 ms, events / occurrence of PR interval >210 ms, subjects: during the course of the study; for occurrence of HR <45 bpm, HR decrease >20 bpm, PR interval ≥200 ms or PR increase >20 ms, events / occurrence of HR <45 bpm, HR decrease >20 bpm, PR interval ≥200 ms or PR increase >20 ms, subjects / percentage of subjects with at least one event (HR <45 bpm, HR decrease >20 bpm, PR ≥200 ms, PR increase >20 ms): first 12 hours on Day 2
Protocol: In a single-center, double-blind, placebo-controlled, randomized, two-way cross-over study, 32 healthy subjects (15 males) received placebo on Day 1 followed by multiple-dose administration of either ponesimod or placebo (ratio 3:1). Ponesimod was administered alternately using regimen A (incremental dose increase from 2 to 20 mg) or B (10 mg for 7 days followed by a single-dose administration of 20 mg). Cardiodynamic (Holter and 12-lead ECG), pharmacokinetic, pharmacodynamic (total lymphocyte count), and safety variables were assessed.
The enrolled subjects came to the study center for each treatment period on Day −2 and participated in a run-in (all study procedures performed without study drug administration) on Day −1. On Day 1, subjects were randomized to one of the two possible sequences of the two up-titration regimens A and B (ratio 1:1). On Day 1, all subjects received placebo; the first study drug administration (or its matching placebo) occurred on Day 2. Regimen A consisted of the novel up-titration regimen: ponesimod was administered once daily (o.d.) orally at a dose of 2 mg on Day 2 and Day 3, 3 mg on Day 4 and Day 5, 4 mg on Day 6 and Day 7, 5 mg on Day 8, 6 mg on Day 9, 7 mg on Day 10, 8 mg on Day 11, 9 mg on Day 12, 10 mg on Day 13 and Day 14, and 20 mg on Day 15. The reference regimen (regimen B) was based on previous studies (Olsson T. et al., Oral ponesimod in relapsing-remitting multiple sclerosis: a randomised phase II trial. J Neurol Neurosurg Psychiatry. 2014; 85 (11): 1198-1208; and Vaclavkova A. et al., Oral ponesimod in patients with chronic plaque psoriasis: a randomised, double-blind, placebo-controlled phase 2 trial. Lancet. 2014; 384 (9959): 2036-2045) and consisted of an o.d. oral administration of ponesimod at a dose of 10 mg for 7 days (i.e., from Day 2 to Day 8) and 20 mg on Day 9. From Day 10 to Day 15 subjects received o.d. the matching placebo. In the placebo group (1:1 sex ratio), subjects received placebo from Day 1 to Day 15. All treatments were administered at the same time in the morning (fasted condition) with approximately 240 mL of water.
Cardiodynamic endpoints were assessed using Holter and 12-lead ECG. The 24-h Holter recordings were performed on Day -1, Day 1, Day 2, Day 9, Day 13, and Day 15. The 12-h Holter recordings were performed on the other days. In addition, Holter data were used to estimate the area under the effect curve (AUEC) for HR. 12-lead ECGs were performed from Day −1 to Day 16 at pre-dose and 1, 2, 3, 4, 5, 6, 8, 10, and 12 h after study drug administration. An additional 12-lead ECG recording was performed at EOFP and EOS. Heart rate nadir, Emax (maximum decrease of mean hourly HR from baseline, which was defined as the mean of the time-matched assessments measured on Day −1 and Day 1 pre-dose), and occurrence of values of interest (HR <45 bpm, HR decrease from baseline >20 bpm, and PR interval increase from baseline >20 ms), and AV-blocks (i.e., […]) were obtained with 12-lead ECG.
Cardiodynamic and pharmacodynamic data are expressed as mean±SD. Repeated measure one-way ANOVAs followed by Tukey's multiple-comparisons tests were used to perform inter-group (i.e., placebo vs. regimen A vs. regimen B) comparisons. Student's t-tests were employed to perform intra-group (baseline vs. treatment) comparisons. Differences were considered to be statistically significant at p <0.05. SAS® version 9.2 (SAS Institute, Cary, NC, USA) was used for the statistical analysis and descriptive statistics of clinical data.

healthy subjects [2] = assay: Pulmonary function tests and clinical laboratory (hematology); assay type: in vivo, human; details: hemoglobin, hematocrit, red blood cell count, basophils, eosinophils, neutrophils, monocytes, platelet count
Protocol: Safety and tolerability were evaluated by monitoring adverse events (AEs), vital signs measurements (supine blood pressure), pulmonary function tests (PFTs; i.e., FEV1 and FVC), clinical laboratory, physical, and neurological examinations. Recording of blood pressure was performed at the same time-points as 12-lead ECG.

[3] = Regimen A (N = 24), Day 2 to EOFP or EOS visit
[4] = Regimen B (N = 24), Day 2 to EOFP or EOS visit

Compound: CCC/N=C1\S/C(=C\c2ccc(OC[C@H](O)CO)c(Cl)c2)C(=O)N1c1ccccc1C [ponesimod, (R)-5-[3-chloro-4-(2,3-dihydroxy-propoxy)-benz[Z]ylidene]-2-([Z]-propylimino)-3-o-tolyl-thiazolidin-4-one]
- mean maximum change from baseline in HR (12-lead ECG) (healthy subjects [1]; 2 mg (regimen A)): −9±5.3 bpm
- decrease in HR vs. baseline (12-lead ECG) (healthy subjects [1]; 2 mg second dose): −9±5.2 bpm
- mean maximum change from baseline in HR (12-lead ECG) (healthy subjects [1]; 10 mg (regimen B)): −13±6.2 bpm
- decrease in HR vs. baseline (12-lead ECG) (healthy subjects [1]; 10 mg second dose): −10±5.1 bpm
- pre-dose HR values (range) (healthy subjects [1]; Day 4 to last day of administration, ponesimod-treated subjects): 56-60 bpm
- Atrial rhythm, number of events (healthy subjects [1]; [3]): 19
- Atrial rhythm, number of subjects (healthy subjects [1]; [3]): 4
- Atrial rhythm, percentage of subjects (healthy subjects [1]; [3]): 16.7 percentage
- Sinus bradycardia, number of events (healthy subjects [1]; [3]): 3
- Sinus bradycardia, number of subjects (healthy subjects [1]; [3]): 3
- Sinus bradycardia, percentage of subjects (healthy subjects [1]; [3]): 12.5 percentage
- Supraventricular extrasystoles, number of events (healthy subjects [1]; [3]): 15
- Supraventricular extrasystoles, number of subjects (healthy subjects [1]; [3]): 3
- Supraventricular extrasystoles, percentage of subjects (healthy subjects [1]; [3]): 12.5 percentage
- Ventricular extrasystoles, number of events (healthy subjects [1]; [3]): 1
- Ventricular extrasystoles, number of subjects (healthy subjects [1]; [3]): 1
- Ventricular extrasystoles, percentage of subjects (healthy subjects [1]; [3]): 4.2 percentage
- AV-block 1st degree, number of events (healthy subjects [1]; [4]): 130
- AV-block 1st degree, number of subjects (healthy subjects [1]; [4]): 6
- AV-block 1st degree, percentage of subjects (healthy subjects [1]; [4]): 25.0 percentage
- AV-block 2nd degree Mobitz I, number of events (healthy subjects [1]; [4]): 1
- AV-block 2nd degree Mobitz I, number of subjects (healthy subjects [1]; [4]): 1
- AV-block 2nd degree Mobitz I, percentage of subjects (healthy subjects [1]; [4]): 4.2 percentage
- Atrial fibrillation, number of subjects (healthy subjects [1]; [4]): 1
- Atrial fibrillation, percentage of subjects (healthy subjects [1]; [4]): 4.2 percentage
- Atrial rhythm, number of events (healthy subjects [1]; [4]): 12
- Atrial rhythm, number of subjects (healthy subjects [1]; [4]): 2
- Atrial rhythm, percentage of subjects (healthy subjects [1]; [4]): 8.3 percentage
- QT prolonged, number of events (healthy subjects [1]; [4]): 142
- QT prolonged, number of subjects (healthy subjects [1]; [4]): 6
- QT prolonged, percentage of subjects (healthy subjects [1]; [4]): 25.0 percentage
- Short PQ, number of events (healthy subjects [1]; [4]): 147
- Short PQ, number of subjects (healthy subjects [1]; [4]): 6
- Short PQ, percentage of subjects (healthy subjects [1]; [4]): 25.0 percentage
- Sinus arrhythmia, number of events (healthy subjects [1]; [4]): 98
- Sinus arrhythmia, number of subjects (healthy subjects [1]; [4]): 12
- Sinus arrhythmia, percentage of subjects (healthy subjects [1]; [4]): 50.0 percentage
- Sinus bradycardia, number of events (healthy subjects [1]; [4]): 33
- Sinus bradycardia, number of subjects (healthy subjects [1]; [4]): 3
- Sinus bradycardia, percentage of subjects (healthy subjects [1]; [4]): 12.5 percentage
- Supraventricular extrasystoles, number of events (healthy subjects [1]; [4]): 29
- Supraventricular extrasystoles, number of subjects (healthy subjects [1]; [4]): 7
- Supraventricular extrasystoles, percentage of subjects (healthy subjects [1]; [4]): 29.2 percentage
- Ventricular extrasystoles, number of events (healthy subjects [1]; [4]): 3
- Ventricular extrasystoles, number of subjects (healthy subjects [1]; [4]): 3
- Ventricular extrasystoles, percentage of subjects (healthy subjects [1]; [4]): 12.5 percentage
- Atrial fibrillation, number of events (healthy subjects [1]; Regimen B (N = 24), Day 2 to EOFP or EOS visit, *Serious adverse event): 1
- time for HR to return to baseline values post-dose (12-lead ECG) (healthy subjects [1]; regimen A): ≤ 3 h
- occurrence of HR <45 bpm, events (healthy subjects [1]; regimen A): 20 events
- occurrence of HR <45 bpm, subjects (healthy subjects [1]; regimen A): 3 subjects
- occurrence of PR interval >210 ms, events (healthy subjects [1]; regimen A): 79 events
- occurrence of PR interval >210 ms, subjects (healthy subjects [1]; regimen A): 6 subjects
- occurrence of HR <45 bpm, HR decrease >20 bpm, PR interval ≥200 ms or PR increase >20 ms, events (healthy subjects [1]; regimen A): 14 events
- occurrence of HR <45 bpm, HR decrease >20 bpm, PR interval ≥200 ms or PR increase >20 ms, subjects (healthy subjects [1]; regimen A): 6 subjects
- percentage of subjects with at least one event (HR <45 bpm, HR decrease >20 bpm, PR ≥200 ms, PR increase >20 ms) (healthy subjects [1]; regimen A): 25%
- time for HR to return to baseline values post-dose (12-lead ECG) (healthy subjects [1]; regimen B): ≤ 4 h
- occurrence of HR <45 bpm, events (healthy subjects [1]; regimen B): 58 events
- occurrence of HR <45 bpm, subjects (healthy subjects [1]; regimen B): 4 subjects
- occurrence of PR interval >210 ms, events (healthy subjects [1]; regimen B): 143 events
- occurrence of PR interval >210 ms, subjects (healthy subjects [1]; regimen B): 8 subjects
- occurrence of HR <45 bpm, HR decrease >20 bpm, PR interval ≥200 ms or PR increase >20 ms, events (healthy subjects [1]; regimen B): 43 events
- occurrence of HR <45 bpm, HR decrease >20 bpm, PR interval ≥200 ms or PR increase >20 ms, subjects (healthy subjects [1]; regimen B): 12 subjects
- percentage of subjects with at least one event (HR <45 bpm, HR decrease >20 bpm, PR ≥200 ms, PR increase >20 ms) (healthy subjects [1]; regimen B): 50%
- effect on PFT variables and hematology variables (healthy subjects [2]): No treatment effect
